Here are results for 8 compounds from patent US12521393B2, “Cytotoxicity targeting chimeras for CCR2-expressing cells” (GLAXOSMITHKLINE INTELLECTUAL PROPERTY DEVELOPMENT LIMITED, priority 2021, dated 2026).

SMILES strings stand for the structures. Where only a bound is given, the exact number is not on record here.

Test [1] has as its system CCR2 expressing cells (CD11b+Ly6c+Hi) in peripheral blood. Put plainly: In vivo depletion assay, flow cytometry of peripheral blood (Example 201). Set-up: species or system human CCR2 knock-in mice (C57 background). The settings on record: hCCR2 knock-in mice, IV 0.1 mpk compound + 10 mpk anti-cotinine antibody (SEQ ID NO: 13/14), peripheral blood at 48 hr. The method in brief: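 Mice dosed with compound formulated in saline/DMSO/PBS, with anti-cotinine antibody (rabbit variable region, mouse IgG2a Fc) where required, pre-incubated 30 min at room temperature. Terminal peripheral blood RBC-lysed, Fc-blocked, stained for CD45, CD3, CD11b, Ly6C, human CCR2 and 7AAD; percent depletion of CD11b+Ly6c+Hi cells determined by flow cytometry.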

The target in test [2] is human alpha1 nicotinic acetylcholine (nACh) receptor (Homo sapiens, UniProt P02708). Put plainly: Nicotinic acetylcholine receptor antagonism assay, IONFlux automated patch clamp (Example 203). The following applies: for IC50: antagonism of ACh-stimulated human alpha1 nAChR current, patch clamp; for Emax at 100 µM: maximum percentage antagonism at maximum concentration tested 100 μM. The class given is cell-based. The method in brief: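 Cells expressing human α1 nAChR were incubated with a compound dose response (top 10 μM or 100 μM), then stimulated with ACh (10 mM), and peak current was read by automated patch clamp. % inhibition was taken against ACh-alone control, corrected for vehicle and run-down, and fit non-linearly for IC50; runs were averaged.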
human alpha1 nicotinic acetylcholine (nACh) receptor, sequence (P02708 21-457): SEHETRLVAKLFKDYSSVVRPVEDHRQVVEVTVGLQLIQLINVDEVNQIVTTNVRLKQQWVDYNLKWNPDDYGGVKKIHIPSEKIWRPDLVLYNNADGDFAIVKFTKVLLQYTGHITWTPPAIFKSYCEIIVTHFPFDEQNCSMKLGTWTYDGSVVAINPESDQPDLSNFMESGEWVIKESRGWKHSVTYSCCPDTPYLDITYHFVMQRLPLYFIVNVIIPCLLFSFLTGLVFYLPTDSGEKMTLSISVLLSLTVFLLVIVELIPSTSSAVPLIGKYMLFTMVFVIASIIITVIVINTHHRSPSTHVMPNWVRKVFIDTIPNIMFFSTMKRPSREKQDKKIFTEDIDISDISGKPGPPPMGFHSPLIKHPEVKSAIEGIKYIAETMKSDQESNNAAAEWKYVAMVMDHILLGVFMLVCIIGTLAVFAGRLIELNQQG
human alpha1 nicotinic acetylcholine (nACh) receptor, sequence (P11230 24-501 partner): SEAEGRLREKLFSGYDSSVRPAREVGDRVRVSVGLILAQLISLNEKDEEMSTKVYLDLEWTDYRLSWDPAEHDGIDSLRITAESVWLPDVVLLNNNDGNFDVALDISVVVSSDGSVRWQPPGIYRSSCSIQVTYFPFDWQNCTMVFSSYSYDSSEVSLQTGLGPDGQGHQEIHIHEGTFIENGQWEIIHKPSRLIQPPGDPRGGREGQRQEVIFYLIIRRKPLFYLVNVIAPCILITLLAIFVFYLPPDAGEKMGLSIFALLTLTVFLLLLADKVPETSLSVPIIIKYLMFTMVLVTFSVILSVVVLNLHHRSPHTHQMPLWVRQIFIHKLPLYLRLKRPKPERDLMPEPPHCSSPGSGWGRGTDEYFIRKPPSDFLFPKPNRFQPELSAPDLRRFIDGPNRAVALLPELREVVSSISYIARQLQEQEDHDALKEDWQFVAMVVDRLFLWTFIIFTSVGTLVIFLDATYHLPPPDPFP
human alpha1 nicotinic acetylcholine (nACh) receptor, sequence (Q07001 22-517 partner): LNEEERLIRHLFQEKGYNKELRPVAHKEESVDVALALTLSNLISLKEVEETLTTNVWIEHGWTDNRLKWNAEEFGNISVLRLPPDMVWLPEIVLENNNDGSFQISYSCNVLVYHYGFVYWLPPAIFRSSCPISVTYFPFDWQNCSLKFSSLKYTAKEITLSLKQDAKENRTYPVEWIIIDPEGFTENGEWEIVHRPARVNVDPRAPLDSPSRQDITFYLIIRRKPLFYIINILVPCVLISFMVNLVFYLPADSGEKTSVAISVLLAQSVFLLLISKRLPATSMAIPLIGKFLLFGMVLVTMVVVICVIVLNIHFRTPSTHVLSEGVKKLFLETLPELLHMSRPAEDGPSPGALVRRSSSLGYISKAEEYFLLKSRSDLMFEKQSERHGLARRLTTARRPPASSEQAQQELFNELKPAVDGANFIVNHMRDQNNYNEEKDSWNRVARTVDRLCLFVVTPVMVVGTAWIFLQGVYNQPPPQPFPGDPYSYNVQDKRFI

Test [3] addresses anti-cotinine antibody (SEQ ID NO: 11/12, rabbit variable region with human IgG1 Fc DE mutation). Kind of test: SPR binding of anti-cotinine antibody to ARM compounds, Biacore T200, 37° C. (Example 202). The following applies: SPR Biacore T200, 37° C., pH 7.4, antibody SEQ ID NO: 11/12 captured on protein A; Kd in molar. The method in brief: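 Antibody captured on a protein A chip; ARM compounds injected at 100 μL/min (200 s association, 2000 s dissociation), 3-fold 5-point series from 200 nM, at 37 °C in HEPES pH 7.4 buffer with 0.005% P20 and 1% DMSO. Double-referenced sensorgrams fit 1:1 for kon, koff, Kd (koff/kon), residence time (1/koff); pKd averaged across runs.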
(SPR reads the build-up and loss of mass on a sensor chip optically.)

By IC50 is commonly meant the concentration at which inhibition is half-maximal. High values mean lower potency, low ones higher potency. As for `CC(C)N(C)[C@@H]1CC[C@H](N2CC[C@H](Nc3ncnc4ccc(C(F)(F)F)cc34)C2=O)[C@H](NC(=O)[C@H]2CC[C@@H](NC(=O)CCCO[C@H]3CC[C@H](NC(=O)CCNC(=O)[C@@H]4CC(=O)N(C)[C@H]4c4cccnc4)CC3)CC2)C1` [Example 52, (2S,3S)-N-(3-(((1R,4S)-4-(4-(((1S,4S)-4-(((1R,2S,5R)-5-(Isopropyl(methyl)amino)-2-((S)-2-oxo-3-((6-(trifluoromethyl)quinazolin-4-yl)amino)pyrrolidin-1-yl)cyclohexyl)carbamoyl)cyclohexyl)amino)-4-oxobutoxy)cyclohexyl)amino)-3-oxopropyl)-1-methyl-5-oxo-2-(pyridin-3-yl)pyrrolidine-3-carboxamide], the “% Depletion of CCR2 expressing cells” value in test [1] is 79.18%. This compound gave an IC50 in test [2] of 33.3 µM. Moreover, the Emax at 33.33 µM in test [2] (maximum percentage antagonism at maximum concentration tested 33.33 μM, read-out: Maximum Response) was found to be 8.3%. Besides, in test [3], the “pKd of Antibody for ARM Compound of Formula (I)” value (from here on “pKd of Antibody”) is 9.2545.
For the compound `CC(C)N(C)[C@@H]1CC[C@H](N2CC[C@H](Nc3ncnc4ccc(C(F)(F)F)cc34)C2=O)[C@H](NC(=O)[C@H]2CC[C@H](NC(=O)CCOC[C@H]3CC[C@H](COCCNC(=O)[C@H]4CC(=O)N(C)[C@@H]4c4cccnc4)CC3)CC2)C1` [Example 53, (2S,3S)-N-(2-(((1R,4S)-4-((3-(((1R,4R)-4-(((1R,2S,5R)-5-(Isopropyl(methyl)amino)-2-((S)-2-oxo-3-((6-(trifluoromethyl)quinazolin-4-yl)amino)pyrrolidin-1-yl)cyclohexyl)carbamoyl)cyclohexyl)amino)-3-oxopropoxy)methyl)cyclohexyl)methoxy)ethyl)-1-methyl-5-oxo-2-(pyridin-3-yl)pyrrolidine-3-carboxamide], in test [1], the “% Depletion of CCR2 expressing cells” value amounted to 68.42%. In test [2], the IC50 is not below 11.1 µM. Also, the Emax at 11.11 µM in test [2] (maximum percentage antagonism at maximum concentration tested 11.11 μM, read-out: Maximum Response) was 10%. Moreover, the “pKd of Antibody” value in test [3] is listed as 9.531.
`CC(C)N(C)[C@@H]1CC[C@H](N2CC[C@H](Nc3ncnc4ccc(C(F)(F)F)cc34)C2=O)[C@H](NC(=O)[C@H]2CC[C@H](NC(=O)CCCOC[C@H]3CC[C@@H](COCCNC(=O)[C@H]4CC(=O)N(C)[C@@H]4c4cccnc4)CC3)CC2)C1` [Example 57, (2S,3S)-N-(2-(((1S,4R)-4-((4-(((1R,4R)-4-(((1R,2S,5R)-5-(Isopropyl(methyl)amino)-2-((S)-2-oxo-3-((6-(trifluoromethyl)quinazolin-4-yl)amino)pyrrolidin-1-yl)cyclohexyl)carbamoyl)cyclohexyl)amino)-4-oxobutoxy)methyl)cyclohexyl)methoxy)ethyl)-1-methyl-5-oxo-2-(pyridin-3-yl)pyrrolidine-3-carboxamide]: the “% Depletion of CCR2 expressing cells” value in test [1] is given as 77%. The compound further gave an IC50 in test [2] not below 30 µM. For the same compound, in test [2] (maximum percentage antagonism at maximum concentration tested 30 μM, read-out: Maximum Response), the Emax at 30 µM came to 47.6%. Further, the “pKd of Antibody” value in test [3] is on record as 9.685.
For the compound `CC(C)N(C)[C@@H]1CC[C@H](N2CC[C@H](Nc3ncnc4ccc(C(F)(F)F)cc34)C2=O)[C@H](NC(=O)[C@H]2CC[C@@H](CC(=O)CCCOC[C@H]3CC[C@H](COCCNC(=O)[C@H]4CC(=O)N(C)[C@@H]4c4cccnc4)CC3)CC2)C1` [Example 60, (2S,3S)-N-(2-(((1R,4S)-4-(((5-((1S,4S)-4-(((1R,2S,5R)-5-(Isopropyl(methyl)amino)-2-((S)-2-oxo-3-((6-(trifluoromethyl)quinazolin-4-yl)amino)pyrrolidin-1-yl)cyclohexyl)carbamoyl)cyclohexyl)-4-oxopentyl)oxy)methyl)cyclohexyl)methoxy)ethyl)-1-methyl-5-oxo-2-(pyridin-3-yl)pyrrolidine-3-carboxamide], the “% Depletion of CCR2 expressing cells” value in test [1] amounted to 90%. The compound further registered an IC50 in test [2] not below 10 µM. The Emax at 10 µM in test [2] (maximum percentage antagonism at maximum concentration tested 10 μM, read-out: Maximum Response) is 18.2%. The “pKd of Antibody” value in test [3] is 9.4635.
For the compound `CC(C)N(C)[C@@H]1CC[C@H](N2CC[C@H](Nc3ncnc4ccc(C(F)(F)F)cc34)C2=O)[C@H](NC(=O)CCNC(=O)CCCOC[C@H]2CC[C@@H](COCCNC(=O)[C@H]3CC(=O)N(C)[C@@H]3c3cccnc3)CC2)C1` [Example 62, (2S,3S)-N-(2-(((1S,4R)-4-((4-((3-(((1R,2S,5R)-5-(Isopropyl(methyl)amino)-2-((S)-2-oxo-3-((6-(trifluoromethyl)quinazolin-4-yl)amino)pyrrrolidin-1-yl)cyclohexyl)amino)-3-oxopropyl)amino)-4-oxobutoxy)methyl)cyclohexyl)methoxy)ethyl)-1-methyl-5-oxo-2-(pyridin-3-yl)pyrrolidine-3-carboxamide], the “% Depletion of CCR2 expressing cells” value in test [1] is reported as 56%. The midpoint of inhibition in test [2], the IC50, lay at 29 µM. The Emax at 100 µM in test [2] (read-out: Maximum Response) worked out at 67.9%. In addition, the “pKd of Antibody” value in test [3] is given as 9.6305.
In the case of `CC(C)N(C)[C@@H]1CC[C@H](N2CC[C@H](Nc3ncnc4ccc(C(F)(F)F)cc34)C2=O)[C@H](NC(=O)[C@H]2CC[C@@H](NC(=O)CCOCCOCCNC(=O)CNC(=O)[C@H]3CC(=O)N(C)[C@@H]3c3cccnc3)CC2)C1` [Example 63, (2S,3S)-N-(2-((2-(2-(3-(((1S,4s)-4-(((1R,2S,5R)-5-(Isopropyl(methyl)amino)-2-((S)-2-oxo-3-((6-(trifluoromethyl)quinazolin-4-yl)amino)pyrrolidin-1-yl)cyclohexyl)carbamoyl)cyclohexyl)amino)-3-oxopropoxy)ethoxy)ethyl)amino)-2-oxoethyl)-1-methyl-5-oxo-2-(pyridin-3-yl)pyrrolidine-3-carboxamide], the “% Depletion of CCR2 expressing cells” value in test [1] was 82%. Moreover, it took 38.5 µM to reach half-maximal inhibition in test [2] (IC50). The Emax at 100 µM in test [2] (read-out: Maximum Response) amounted to 76.6%. Moreover, the “pKd of Antibody” value in test [3] is listed as 8.674.
On to `CC(C)N(C)[C@@H]1CC[C@H](N2CC[C@H](Nc3ncnc4ccc(C(F)(F)F)cc34)C2=O)[C@H](NC(=O)CCOCCOCCNC(=O)CCOCCOCCNC(=O)[C@H]2CC(=O)N(C)[C@@H]2c2cccnc2)C1` [Example 76, (2S,3S)-N-(19-(((1R,2S,5R)-5-(Isopropyl(methyl)amino)-2-((S)-2-oxo-3-((6-(trifluoromethyl)quinazolin-4-yl)amino)pyrrolidin-1-yl)cyclohexyl)amino)-9,19-dioxo-3,6,13,16-tetraoxa-10-azanonadecyl)-1-methyl-5-oxo-2-(pyridin-3-yl)pyrrolidine-3-carboxamide], for which, in test [1], the “% Depletion of CCR2 expressing cells” value is recorded as 65%. Besides, the IC50 in test [2] came out at 32.4 µM. Further, the Emax at 100 µM in test [2] (read-out: Maximum Response) came out at 67.7%. In addition, the “pKd of Antibody” value in test [3] is on record as 9.1155.
As for `CC(C)N(C)[C@@H]1CC[C@H](N2CC[C@H](Nc3ncnc4ccc(C(F)(F)F)cc34)C2=O)[C@H](NC(=O)[C@H]2CC[C@@H](NC(=O)COCCNC(=O)COCCNC(=O)[C@H]3CC(=O)N(C)[C@@H]3c3cccnc3)CC2)C1` [Example 99, (2S,3S)-N-(2-(2-((2-(2-(((1S,4s)-4-(((1R,2S,5R)-5-(Isopropyl(methyl)amino)-2-((S)-2-oxo-3-((6-(trifluoromethyl)quinazolin-4-yl)amino)pyrrolidin-1-yl)cyclohexyl)carbamoyl)cyclohexyl)amino)-2-oxoethoxy)ethyl)amino)-2-oxoethoxy)ethyl)-1-methyl-5-oxo-2-(pyridin-3-yl)pyrrolidine-3-carboxamide], the “% Depletion of CCR2 expressing cells” value in test [1] turned out to be 80%. Further, in test [2], the IC50 stood at 33.1 µM. Further, the Emax at 100 µM in test [2] (read-out: Maximum Response) stood at 71.1%. Also, the “pKd of Antibody” value in test [3] was found to be 9.062.
